Activity calls are given as the source filed them.
Assays:
Caspase-3 = biological target: T1, Caspase-3 (Homo sapiens, UniProt P42574); format: functional;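 note: Dose-response selectivity test against caspase-3 for candidate inhibitors of sentrin-specific proteases (SENPs)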
T1 sequence (P42574 whole entry): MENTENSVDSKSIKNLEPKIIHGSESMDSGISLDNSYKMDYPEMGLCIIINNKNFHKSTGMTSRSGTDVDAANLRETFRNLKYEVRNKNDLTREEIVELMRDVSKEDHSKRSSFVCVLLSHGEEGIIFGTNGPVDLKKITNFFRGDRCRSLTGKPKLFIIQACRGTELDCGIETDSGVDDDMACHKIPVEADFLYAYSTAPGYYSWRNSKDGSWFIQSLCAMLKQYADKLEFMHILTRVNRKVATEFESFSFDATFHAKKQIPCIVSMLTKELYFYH

[1] = biological target: T2, Sentrin-specific protease 8 (Homo sapiens, UniProt Q96LD8); format: functional;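 note: luminescence read-out of SENP8 inhibition, dose-response confirmation following an ultra-high-throughput screen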
T2 sequence (Q96LD8 whole entry): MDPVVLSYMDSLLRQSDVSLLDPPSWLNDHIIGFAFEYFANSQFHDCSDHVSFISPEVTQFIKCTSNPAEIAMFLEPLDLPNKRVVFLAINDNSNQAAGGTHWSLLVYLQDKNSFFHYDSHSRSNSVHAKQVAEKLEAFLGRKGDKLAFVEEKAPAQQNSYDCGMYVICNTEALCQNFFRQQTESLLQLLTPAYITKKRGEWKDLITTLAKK

[2] = biological target: T3, Sentrin-specific protease 6 (Homo sapiens, UniProt Q9GZR1); format: functional;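 note: Luminescence-based dose-response confirmatory assay of SENP6 inhibition, following up an ultra-high-throughput screen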
T3 sequence (Q9GZR1 whole entry): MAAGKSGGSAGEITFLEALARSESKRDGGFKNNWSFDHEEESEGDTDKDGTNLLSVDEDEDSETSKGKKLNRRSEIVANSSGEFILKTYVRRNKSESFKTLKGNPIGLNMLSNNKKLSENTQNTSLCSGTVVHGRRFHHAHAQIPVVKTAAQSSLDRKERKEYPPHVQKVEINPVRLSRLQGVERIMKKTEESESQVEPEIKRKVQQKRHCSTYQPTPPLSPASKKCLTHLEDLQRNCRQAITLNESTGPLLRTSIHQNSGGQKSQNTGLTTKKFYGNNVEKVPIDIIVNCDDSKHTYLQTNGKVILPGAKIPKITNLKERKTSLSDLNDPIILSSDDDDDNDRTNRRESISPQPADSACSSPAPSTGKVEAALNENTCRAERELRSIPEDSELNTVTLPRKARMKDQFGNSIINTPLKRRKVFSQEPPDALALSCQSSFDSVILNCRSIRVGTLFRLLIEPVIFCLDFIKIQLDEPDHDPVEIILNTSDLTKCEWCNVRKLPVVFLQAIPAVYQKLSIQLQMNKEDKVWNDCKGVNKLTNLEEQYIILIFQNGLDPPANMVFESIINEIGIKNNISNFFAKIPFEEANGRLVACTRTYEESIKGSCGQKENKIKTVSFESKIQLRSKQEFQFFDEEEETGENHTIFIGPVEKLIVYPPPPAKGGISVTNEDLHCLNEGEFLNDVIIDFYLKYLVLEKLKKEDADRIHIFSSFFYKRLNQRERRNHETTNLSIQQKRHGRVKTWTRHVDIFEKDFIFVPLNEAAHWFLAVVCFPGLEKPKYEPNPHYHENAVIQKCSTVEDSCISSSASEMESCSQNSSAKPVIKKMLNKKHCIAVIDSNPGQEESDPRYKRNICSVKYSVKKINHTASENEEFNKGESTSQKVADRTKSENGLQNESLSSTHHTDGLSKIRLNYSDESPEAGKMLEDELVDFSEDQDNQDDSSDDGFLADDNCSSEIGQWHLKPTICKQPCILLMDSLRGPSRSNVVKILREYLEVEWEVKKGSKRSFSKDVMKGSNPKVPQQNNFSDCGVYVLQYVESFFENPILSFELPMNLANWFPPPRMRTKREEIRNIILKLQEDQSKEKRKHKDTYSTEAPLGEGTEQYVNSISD

[3] = biological target: T4, Sentrin-specific protease 7 (Homo sapiens, UniProt Q9BQF6); format: functional;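 note: Luminescence-based dose-response confirmation of ultra-high-throughput screening hits, measuring inhibition of SENP7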
T4 sequence (Q9BQF6 whole entry): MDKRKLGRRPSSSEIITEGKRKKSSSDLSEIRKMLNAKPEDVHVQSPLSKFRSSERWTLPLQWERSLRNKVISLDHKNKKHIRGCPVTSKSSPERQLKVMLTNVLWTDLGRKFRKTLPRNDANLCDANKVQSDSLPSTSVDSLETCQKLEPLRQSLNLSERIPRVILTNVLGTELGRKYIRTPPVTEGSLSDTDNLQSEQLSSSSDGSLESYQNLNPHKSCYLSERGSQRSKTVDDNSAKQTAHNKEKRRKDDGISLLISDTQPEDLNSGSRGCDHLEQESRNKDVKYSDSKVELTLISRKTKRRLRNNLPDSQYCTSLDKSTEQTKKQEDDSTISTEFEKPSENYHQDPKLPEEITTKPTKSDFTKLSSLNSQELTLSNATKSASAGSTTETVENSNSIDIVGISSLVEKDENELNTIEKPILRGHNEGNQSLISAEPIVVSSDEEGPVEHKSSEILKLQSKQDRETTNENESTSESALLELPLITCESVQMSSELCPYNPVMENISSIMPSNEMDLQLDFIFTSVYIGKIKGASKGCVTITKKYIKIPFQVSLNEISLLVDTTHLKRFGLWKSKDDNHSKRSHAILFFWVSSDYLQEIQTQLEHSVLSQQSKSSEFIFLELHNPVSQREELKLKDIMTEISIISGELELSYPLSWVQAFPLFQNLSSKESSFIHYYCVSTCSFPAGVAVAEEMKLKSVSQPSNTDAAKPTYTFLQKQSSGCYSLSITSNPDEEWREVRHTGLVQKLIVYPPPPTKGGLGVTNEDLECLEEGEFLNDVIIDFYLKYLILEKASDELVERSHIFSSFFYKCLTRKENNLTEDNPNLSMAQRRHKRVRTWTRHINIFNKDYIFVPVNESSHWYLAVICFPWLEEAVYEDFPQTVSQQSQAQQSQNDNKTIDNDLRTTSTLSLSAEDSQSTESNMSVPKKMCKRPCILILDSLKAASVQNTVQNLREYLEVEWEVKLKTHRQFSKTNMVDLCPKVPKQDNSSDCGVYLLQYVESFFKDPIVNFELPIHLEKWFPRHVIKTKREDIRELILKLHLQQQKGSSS

[4] = biological target: Glucose-6-phosphate 1-dehydrogenase (Homo sapiens, UniProt P11413); experiment: inhibition of Homo sapiens G6PD, dose series – biochemical, fluorescence, selectivity assay for P. falciparum G6PD inhibitor project, dose response (AID 504792); format: functional
[5] = Counterscreen for activators of the function of SWI/SNF related, matrix associated, actin dependent regulator of chromatin, subfamily a, member 2 (SMARCA2, BRM): Luminescence-based cell-based high throughput dose response assay to identify non-selective compounds using the VP16 reporter assay.; format: functional
[6] = biological target: SWI/SNF-related matrix-associated actin-dependent regulator of chromatin subfamily A member 2 (Homo sapiens, UniProt P51531); experiment: Luminescence-based cell-based high throughput dose response assay to identify activators of the function of SWI/SNF related, matrix associated, actin dependent regulator of chromatin, subfamily a, member 2 (SMARCA2, BRM).; format: functional
[7] = biological target: ADP-ribosylation factor GTPase-activating protein 1 (Rattus norvegicus, UniProt Q62848); experiment: Fluorescence polarization-based biochemical high throughput dose response screening assay to identify inhibitors of ADP-ribosylation factor GTPase activating protein 1 (ARFGAP1).; format: functional
Cytochrome P450 2C9 = Cytochrome P450 2C9 (Homo sapiens, UniProt P11712)
Cytochrome P450 2C19 = Cytochrome P450 2C19 (Homo sapiens, UniProt P33261); experiment: Cytochrome panel assay with activity outcomes. Panel member name: p450-cyp2c19 Compounds with AC50 equal or less than 10 uM are considered active; format: functional; conditions: read-out: AC50
Beta-galactosidase = Beta-galactosidase (Escherichia coli, UniProt Q8VNN2); experiment: Dose response counterscreen for EBI2 assay utilizing the enzyme, b-galactosidase.; format: functional
[8] = biological target: Ras and Rab interactor 1/Tyrosine-protein kinase ABL1 (Homo sapiens, UniProt P00519+Q13671); format: functional;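 note: biochemical TR-FRET dose-response test measuring inhibition of binding between Rin1 and Abl proteins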
[9] = reduction of Shn3 3'UTR-driven luciferase in osteoblasts – cell-based, Clone20 osteoblasts, firefly luciferase, cherry-picked, dose response (AID 624132); format: functional;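 note: firefly luciferase luminescence from reporter carrying the Shn3 3'UTR in osteoblasts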
[10] = non-specific 3'UTR reporter inhibition in Clone20-Shn3RL – cell-based, Renilla luciferase, cherry-picked, counter-screen for Shn3 inhibitor project, dose response (AID 624133); format: functional
Protein Wnt-3a = Protein Wnt-3a (Mus musculus, UniProt P27467); experiment: antagonism of Wnt3a pathway luciferase reporter – Wnt-LIGHT cells, luminescence, selectivity assay for Gli-SUFU antagonist project, dose response (AID 651570); format: functional; conditions: read-out: IC50_Mean;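 note: Wnt-LIGHT reporter cells stimulated with conditioned medium from Wnt3a-producing cells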
[11] = loss of viability in HepG2 cells – cell-based, CellTiter-Glo, cherry-picked, cytotoxicity control for Shn3 inhibitor project, dose response (AID 624134); format: functional
[12] = HPDE-C7 pancreatic duct cell viability loss – fluorescence, HTS (AID 430); format: functional, cell-based; conditions: Homo sapiens
[13] = viability loss of HPDE-C7K cells – cell-based, fluorescence, HTS, primary screen (AID 431); format: functional; conditions: Homo sapiens

Sequence of Beta-galactosidase (Q8VNN2 whole entry): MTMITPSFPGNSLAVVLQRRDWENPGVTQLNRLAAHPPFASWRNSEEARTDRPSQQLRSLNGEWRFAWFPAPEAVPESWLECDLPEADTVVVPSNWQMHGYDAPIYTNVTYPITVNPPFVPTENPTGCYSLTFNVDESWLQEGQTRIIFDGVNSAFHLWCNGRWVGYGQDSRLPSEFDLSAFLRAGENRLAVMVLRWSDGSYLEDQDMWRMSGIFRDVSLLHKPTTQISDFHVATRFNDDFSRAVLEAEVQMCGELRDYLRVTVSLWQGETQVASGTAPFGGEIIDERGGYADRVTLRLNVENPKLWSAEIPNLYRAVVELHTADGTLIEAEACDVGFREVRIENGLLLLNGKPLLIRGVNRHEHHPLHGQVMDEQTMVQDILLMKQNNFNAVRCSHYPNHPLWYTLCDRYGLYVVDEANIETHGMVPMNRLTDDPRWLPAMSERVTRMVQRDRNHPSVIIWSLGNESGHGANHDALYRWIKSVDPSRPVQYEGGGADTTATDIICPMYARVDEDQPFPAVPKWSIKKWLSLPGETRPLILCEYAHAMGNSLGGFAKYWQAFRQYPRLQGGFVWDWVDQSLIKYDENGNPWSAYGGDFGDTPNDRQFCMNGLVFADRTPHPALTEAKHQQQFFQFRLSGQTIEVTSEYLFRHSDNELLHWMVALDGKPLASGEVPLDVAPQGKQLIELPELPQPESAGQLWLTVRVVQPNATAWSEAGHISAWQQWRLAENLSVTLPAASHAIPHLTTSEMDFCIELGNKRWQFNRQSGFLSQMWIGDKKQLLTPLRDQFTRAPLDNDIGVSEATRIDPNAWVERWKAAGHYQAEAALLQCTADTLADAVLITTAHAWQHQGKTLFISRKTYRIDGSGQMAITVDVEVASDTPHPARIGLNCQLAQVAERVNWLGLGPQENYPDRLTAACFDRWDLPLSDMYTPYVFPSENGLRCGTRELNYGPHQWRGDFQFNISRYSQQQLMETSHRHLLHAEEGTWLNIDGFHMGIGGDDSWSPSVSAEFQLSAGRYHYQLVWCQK
Sequence of Ras and Rab interactor 1/Tyrosine-protein kinase ABL1 (P00519 whole entry): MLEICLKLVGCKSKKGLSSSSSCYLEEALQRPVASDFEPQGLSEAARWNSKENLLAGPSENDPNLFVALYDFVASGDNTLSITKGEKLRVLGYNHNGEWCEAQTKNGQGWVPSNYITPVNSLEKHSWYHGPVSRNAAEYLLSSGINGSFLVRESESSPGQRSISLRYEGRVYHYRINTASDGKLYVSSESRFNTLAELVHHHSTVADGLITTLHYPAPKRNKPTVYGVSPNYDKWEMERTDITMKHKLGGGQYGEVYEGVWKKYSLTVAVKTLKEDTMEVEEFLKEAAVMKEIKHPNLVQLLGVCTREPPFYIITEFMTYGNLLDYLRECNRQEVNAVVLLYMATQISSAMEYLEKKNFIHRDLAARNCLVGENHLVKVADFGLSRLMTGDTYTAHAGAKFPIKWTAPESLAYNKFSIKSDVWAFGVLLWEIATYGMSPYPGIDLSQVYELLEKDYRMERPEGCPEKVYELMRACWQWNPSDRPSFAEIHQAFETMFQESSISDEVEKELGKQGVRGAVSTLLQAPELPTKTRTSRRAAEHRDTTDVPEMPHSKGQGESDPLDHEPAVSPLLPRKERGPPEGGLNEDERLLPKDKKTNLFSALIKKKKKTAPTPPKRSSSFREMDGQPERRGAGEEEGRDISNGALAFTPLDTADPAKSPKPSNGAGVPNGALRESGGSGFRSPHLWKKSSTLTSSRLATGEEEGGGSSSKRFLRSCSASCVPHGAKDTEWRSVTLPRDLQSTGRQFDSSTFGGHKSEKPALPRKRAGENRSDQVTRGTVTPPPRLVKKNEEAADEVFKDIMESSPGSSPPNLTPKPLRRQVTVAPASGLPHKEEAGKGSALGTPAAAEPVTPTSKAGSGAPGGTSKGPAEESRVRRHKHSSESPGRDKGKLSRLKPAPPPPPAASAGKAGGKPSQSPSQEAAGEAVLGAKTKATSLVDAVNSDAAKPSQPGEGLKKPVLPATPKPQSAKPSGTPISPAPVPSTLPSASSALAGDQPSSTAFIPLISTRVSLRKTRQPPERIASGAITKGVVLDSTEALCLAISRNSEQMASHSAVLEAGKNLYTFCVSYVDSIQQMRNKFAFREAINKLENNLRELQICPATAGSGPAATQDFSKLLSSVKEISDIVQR
Sequence of Ras and Rab interactor 1/Tyrosine-protein kinase ABL1 (Q13671 whole entry): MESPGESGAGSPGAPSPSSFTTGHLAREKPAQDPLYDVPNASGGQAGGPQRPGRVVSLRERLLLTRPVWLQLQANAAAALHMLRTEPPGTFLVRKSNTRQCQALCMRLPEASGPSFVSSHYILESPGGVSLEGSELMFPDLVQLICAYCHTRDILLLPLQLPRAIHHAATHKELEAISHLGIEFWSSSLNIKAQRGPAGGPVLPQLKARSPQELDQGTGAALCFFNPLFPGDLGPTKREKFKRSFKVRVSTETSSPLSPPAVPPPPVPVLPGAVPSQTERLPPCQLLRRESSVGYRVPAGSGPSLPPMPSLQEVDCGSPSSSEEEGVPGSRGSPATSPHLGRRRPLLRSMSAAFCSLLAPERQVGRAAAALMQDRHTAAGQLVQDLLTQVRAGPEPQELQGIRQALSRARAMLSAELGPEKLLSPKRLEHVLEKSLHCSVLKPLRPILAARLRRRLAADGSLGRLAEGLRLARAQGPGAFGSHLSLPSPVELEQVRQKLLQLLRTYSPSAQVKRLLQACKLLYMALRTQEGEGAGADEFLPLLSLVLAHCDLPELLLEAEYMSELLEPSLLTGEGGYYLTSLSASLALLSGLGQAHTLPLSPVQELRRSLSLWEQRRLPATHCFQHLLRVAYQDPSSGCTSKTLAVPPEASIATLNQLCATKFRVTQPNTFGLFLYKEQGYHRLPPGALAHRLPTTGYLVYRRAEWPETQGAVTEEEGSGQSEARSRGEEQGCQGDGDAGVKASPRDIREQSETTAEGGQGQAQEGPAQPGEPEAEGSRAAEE
Sequence of Glucose-6-phosphate 1-dehydrogenase (P11413 whole entry): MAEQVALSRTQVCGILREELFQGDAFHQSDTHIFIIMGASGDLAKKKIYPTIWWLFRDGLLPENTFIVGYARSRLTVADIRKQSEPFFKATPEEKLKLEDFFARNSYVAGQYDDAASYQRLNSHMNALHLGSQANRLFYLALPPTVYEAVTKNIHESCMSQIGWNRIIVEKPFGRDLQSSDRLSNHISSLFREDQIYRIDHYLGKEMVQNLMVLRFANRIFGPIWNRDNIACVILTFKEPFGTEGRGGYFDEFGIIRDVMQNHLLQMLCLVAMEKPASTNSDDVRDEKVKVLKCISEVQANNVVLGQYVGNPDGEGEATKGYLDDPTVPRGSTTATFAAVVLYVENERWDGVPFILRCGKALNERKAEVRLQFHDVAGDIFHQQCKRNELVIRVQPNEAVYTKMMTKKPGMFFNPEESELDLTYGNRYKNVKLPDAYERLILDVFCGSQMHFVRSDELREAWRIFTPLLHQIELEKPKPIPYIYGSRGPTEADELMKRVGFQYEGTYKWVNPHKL
Sequence of ADP-ribosylation factor GTPase-activating protein 1 (Q62848 whole entry): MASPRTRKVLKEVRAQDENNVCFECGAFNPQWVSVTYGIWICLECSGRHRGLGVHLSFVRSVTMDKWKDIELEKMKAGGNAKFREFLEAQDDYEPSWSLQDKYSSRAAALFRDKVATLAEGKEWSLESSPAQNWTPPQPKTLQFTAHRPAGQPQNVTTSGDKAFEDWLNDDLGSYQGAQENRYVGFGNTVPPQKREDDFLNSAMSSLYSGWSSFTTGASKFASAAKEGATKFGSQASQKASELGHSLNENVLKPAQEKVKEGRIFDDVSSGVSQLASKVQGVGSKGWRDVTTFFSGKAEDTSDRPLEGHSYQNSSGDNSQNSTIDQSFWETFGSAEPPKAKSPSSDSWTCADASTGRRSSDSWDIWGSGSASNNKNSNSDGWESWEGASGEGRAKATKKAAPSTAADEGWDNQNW
Sequence of Cytochrome P450 2C19 (P33261 whole entry): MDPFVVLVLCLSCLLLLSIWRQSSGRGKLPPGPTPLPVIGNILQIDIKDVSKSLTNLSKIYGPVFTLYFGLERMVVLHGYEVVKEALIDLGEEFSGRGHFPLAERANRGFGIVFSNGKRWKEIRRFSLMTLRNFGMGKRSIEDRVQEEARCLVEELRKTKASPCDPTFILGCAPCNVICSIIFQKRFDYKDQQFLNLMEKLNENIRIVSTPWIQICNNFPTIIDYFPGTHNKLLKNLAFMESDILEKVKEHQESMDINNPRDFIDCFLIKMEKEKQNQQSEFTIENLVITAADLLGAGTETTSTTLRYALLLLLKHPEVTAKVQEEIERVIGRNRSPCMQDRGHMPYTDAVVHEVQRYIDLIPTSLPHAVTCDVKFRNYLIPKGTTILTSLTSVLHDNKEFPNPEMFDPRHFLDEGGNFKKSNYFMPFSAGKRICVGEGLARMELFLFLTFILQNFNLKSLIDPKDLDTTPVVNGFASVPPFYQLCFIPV
Sequence of Cytochrome P450 2C9 (P11712 whole entry): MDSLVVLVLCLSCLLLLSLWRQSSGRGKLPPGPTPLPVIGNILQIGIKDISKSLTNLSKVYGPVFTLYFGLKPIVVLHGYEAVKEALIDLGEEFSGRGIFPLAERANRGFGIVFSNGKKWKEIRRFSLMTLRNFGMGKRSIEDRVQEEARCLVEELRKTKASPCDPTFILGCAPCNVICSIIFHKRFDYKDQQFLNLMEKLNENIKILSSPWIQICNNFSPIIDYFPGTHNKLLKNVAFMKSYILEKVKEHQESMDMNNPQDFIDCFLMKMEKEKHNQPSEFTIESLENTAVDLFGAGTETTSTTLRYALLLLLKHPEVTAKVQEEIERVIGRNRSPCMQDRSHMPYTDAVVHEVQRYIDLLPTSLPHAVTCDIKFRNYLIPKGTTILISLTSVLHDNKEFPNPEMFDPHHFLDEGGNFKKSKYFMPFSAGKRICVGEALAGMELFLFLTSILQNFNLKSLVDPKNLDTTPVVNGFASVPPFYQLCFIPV

| Structure (SMILES) | IC50 (Caspase-3) | IC50 [2] | IC50 [3] | IC50 [1] | also measured |
| --- | --- | --- | --- | --- | --- |
| Cc1ccc(/C=C/C(=O)NC2CCCCCCC2)o1 |  |  |  |  | IC50 [4]: > 80 µM (inactive); EC50 [5]: > 91.1 µM (inactive); EC50 [6]: > 91.1 µM (inactive) |
| COC(=O)c1ccc(Nc2nc(-c3ccncc3)nc3ccccc23)cc1 |  |  |  |  | IC50 [7]: 98.4 µM (inactive) |
| O=C(COc1ccc2ccccc2c1)N1CCN(C(=O)c2cccnc2)CC1 |  |  |  |  | AC50 (Cytochrome P450 2C9): 31.6 µM (inconclusive); AC50 (Cytochrome P450 2C19): 15.8 µM (inconclusive); IC50 (Beta-galactosidase): > 80 µM (inactive) |
| O=C(O)c1ccc(CSc2nnc(-c3cccnc3)n2-c2ccc(Br)cc2)cc1 |  |  |  |  | IC50 [8]: 11.8 µM (inactive) |
| CN(C)S(=O)(=O)N1CCN(CC(O)COc2ccc3cc(Br)ccc3c2)CC1 (configuration not stated) |  |  |  |  | IC50 (Beta-galactosidase): > 80 µM (inactive) |
| COc1ccc(-c2csc(NC(=O)c3ccco3)n2)cc1 | 31.1 µM (active) | 28.5 µM (active) | 8.46 µM (active) | 41.3 µM (active) |  |
| CN(Cc1ccc(OCC(O)CN2CCCCC2)cc1)Cc1ccnc2ccccc12 (configuration not stated) |  |  |  |  | AC50 [9]: 1.21 µM (active); AC50 [10]: 1.37 µM (active); IC50 (Protein Wnt-3a): 3.4 µM (active); AC50 [11]: 4.07 µM (active) |
| Cc1nnc(SCc2nc3ccccc3[nH]2)s1 |  |  |  |  | IC50 [8]: 15.2 µM (inactive); EC50 [12]: > 20 µM (not active); EC50 [13]: > 20 µM (not active) |
| C[N+](=N[N-]c1cccc([N+](=O)[O-])c1)c1ccccc1 | 29.7 µM (active) | 33.7 µM (active) | 6.72 µM (active) | 36 µM (active) |  |

Now from value to molecule, other results behind:

| IC50 (Caspase-3) | IC50 [2] | IC50 [3] | Structure (SMILES) | IC50 [1] | also measured |
| --- | --- | --- | --- | --- | --- |
| 2.52 µM (active) | > 100 µM (inactive) | < 1.55 µM (active) | COc1cccc(-c2nc3ccc([N+](=O)[O-])cc3o2)c1 | > 100 µM (inactive) |  |
| 26.5 µM (active) | 9.3 µM (active) | 5.5 µM (active) | O=C(Nc1ccc(Cl)cc1)C1=Cc2ccccc2OC1 | 10.1 µM (active) |  |

Reference: ChEMBL document CHEMBL1201862, “PubChem BioAssay data set” (2004)
